Tested on: p-cMyc(S62), cMyc, p-AKT(S473), AKT, p-ERK(T202/Y204), ERK in SW620, HCT15, HCT116 cells
Assay: Target engagement by Western blot in colon cancer cell lines
Format: cell-based
Details: HCT 116 cells; 10-80 μM, 3 hours; with a dose effect
Description: For Western blot, the compounds were tested at 4 concentrations for 3 hours on 3 colon cancer cell lines. The compounds, concentrations, colon cancer cell line panel, and antibodies panel tested are the following: • CBG: 0 μM, 10 μM, 20 μM, 40 μM, and 80 μM. • Compound 1: 0 μM, 10 μM, 20 μM, 40 μM, and 80 μM. • Compound 2: 0 μM, 10 μM, 20 μM, 40 μM, and 80 μM. • Colon cancer cell line panel: SW620, HCT15, HCT116 • Antibodies panel: p-cMYC(S62), cMyc, p-AKT(S473), AKT, p-ERK(T202/Y204), ERK Methods
Evaluation of target engagement was performed to determine the expression of specific marker protein expression and underlying signaling pathways with Western blot.
Western blot. Whole cell extracts were prepared by incubating cell pellets in IP lysis buffer supplemented with protease and phosphatase inhibitors (Roche). Isolated protein was quantified by Pierce BCA Protein assay (ThermoFisher). Equal quantities of protein were separated by 4-15% SDS-PAGE electrophoresis gels and transferred onto nitrocellulose membranes. Membranes was blocked with 5% nonfat milk in Tris-buffered saline-Tween buffer. […]

## CCCCCc1cc(O)c(C/C=C(\C)CCC=C(C)C)c(OC)c1 [Compound 1, (E)-2-(3,7-dimethylocta-2,6-dien-1-yl)-3-methoxy-5-pentylphenol]
  pAKT(S473) (Western blot): down-regulated

From patent publication US12433903B2 (priority 2021, dated 2025)
